Measurements as given in ChEMBL document CHEMBL1150931, “10-Oximeguanacone, the first nitrogenated acetogenin derivative found to be a potent inhibitor of mitochondrial complex I” (J Nat Prod, 1998).

Legend:
[1] = Inhibition of NADH-oxidase activity of electron transport protein complex 1 in submitochondrial particles of bovine heart; design: species or system Bos taurus
[2] = Inhibition of NADH-ubiquinone oxidoreductase activity of electron transport protein complex 1 in submitochondrial particles of bovine heart; design: species or system Bos taurus

Compound	IC50 [1] [nM]	IC50 [2] [nM]
CCCCCCCCCC[C@H](O)[C@H]1CC[C@H]([C@H]2CC[C@H]([C@H](O)CCCC/C(CCCCCCCC3=C[C@H](C)OC3=O)=N\O)O2)O1	0.34	0.68
CCCCC[C@H](O)CCCC[C@H](O)[C@H]1CC[C@H]([C@H]2CC[C@H]([C@H](O)CCCCCCCCCCCCC3=C[C@H](C)OC3=O)O2)O1 [MOTRILIN]	0.41	0.81
CCCCCCCCCC[C@H](O)[C@H]1CC[C@H]([C@H]2CC[C@H]([C@H](O)CCCCCCCCCCC(O)CC3=C[C@H](C)OC3=O)O2)O1 (some centres undefined) [rolliniastatin-2]	0.51	0.61
CCCCCCCCCC[C@H](O)[C@H]1CC[C@H]([C@H]2CC[C@H]([C@H](O)CCCCC(=O)CCCCCCCC3=C[C@H](C)OC3=O)O2)O1 [GUANACONE]	1.52	2.07
CCCCCCCCCC[C@H](O)[C@H]1CC[C@H]([C@H]2CC[C@H]([C@H](O)CCCCC(O)CCCCCCCC3=C[C@H](C)OC3=O)O2)O1 (some centres undefined)	0.95	1.9
CCCCCCCCCC[C@H](O)[C@@H]1CC[C@H]([C@H]2CC[C@@H]([C@H](O)CCCCCCCC[C@@H](O)CC3=C[C@H](C)OC3=O)O2)O1 [ROLLIMEMBRIN]	0.33	0.83
CCCCCCCCCC[C@H](O)[C@H]1CC[C@H]([C@H]2CC[C@H]([C@H](O)CCCCCCCCCCCCC3=C[C@H](C)OC3=O)O2)O1 [BULLANIN]	0.32	0.44
